The results in this text go back to patent US9138436B2, “Inhibitors of Bruton's tyrosine kinase” (PHARMACYCLICS LLC, priority 2011, dated 2015).

As a reminder, the IC50 is the concentration needed to halve the response being measured. High values mean a need for much substance, low ones inhibition by little substance.

The assay deals with Btk (Homo sapiens, UniProt Q06187). As to the kind of experiment: Btk in vitro inhibitory activity, acellular kinase assay (TR-FRET). In kind it is biochemical. The protocol:
Btk kinase activity is determined using a time-resolved fluorescence resonance energy transfer (TR-FRET) methodology. Measurements are performed in a reaction volume of 50 μL using 96-well assay plates. Kinase enzyme, inhibitor, ATP (at the Km for the kinase), and 1 μM peptide substrate (Biotin-AVLESEEELYSSARQ-NH2) are incubated in a reaction buffer composed of 20 mM Tris, 50 mM NaCl, MgCl2 (5-25 mM depending on the kinase), MnCl2 (0-10 mM), 1 mM DTT, 0.1 mM EDTA, 0.01% bovine serum albumin, 0.005% Tween-20, and 10% DMSO at pH 7.4 for one hour. The reaction is quenched by the addition of 1.2 equivalents of EDTA (relative to divalent cation) in 25 μL of 1× Lance buffer (Perkin-Elmer). Streptavidin-APC (Perkin-Elmer) and Eu-labeled p-Tyr100 antibody (Perkin-Elmer) in 1× Lance buffer are added in a 25 μL volume to give final concentrations of 100 nM and 2.5 nM, respectively, and the mixture is allowed to incubate for one hour. The TR-FRET signal is measured on a multimode plate reader with an excitation wavelength (λEx) of 330 nm and detection wavelengths (λEm) of 615 and 665 nm. Activity is determined by the ratio of the fluorescence at 665 nm to that at 615 nm. For each compound, enzyme activity is measured at various concentrations of compound. Negative control reactions are performed in the absence of inhibitor in replicates of six, and two no-enzyme controls were used to determine baseline fluorescence levels. Inhibition constants, Ki(app), are obtained using the program BatchKi (Kuzmic et al. (2000), Anal. Biochem. 286:45-50). IC50s are obtained according to the equation: IC50={Ki(app)/(1+[ATP]/Km^ATP)}+[E]total/2;
For all kinases, [ATP]=Km^ATP, [Btk]total=0.5 nM and [Lck]total=6 nM.

Bounds are passed on as bounds.

Btk, sequence (Q06187 whole entry): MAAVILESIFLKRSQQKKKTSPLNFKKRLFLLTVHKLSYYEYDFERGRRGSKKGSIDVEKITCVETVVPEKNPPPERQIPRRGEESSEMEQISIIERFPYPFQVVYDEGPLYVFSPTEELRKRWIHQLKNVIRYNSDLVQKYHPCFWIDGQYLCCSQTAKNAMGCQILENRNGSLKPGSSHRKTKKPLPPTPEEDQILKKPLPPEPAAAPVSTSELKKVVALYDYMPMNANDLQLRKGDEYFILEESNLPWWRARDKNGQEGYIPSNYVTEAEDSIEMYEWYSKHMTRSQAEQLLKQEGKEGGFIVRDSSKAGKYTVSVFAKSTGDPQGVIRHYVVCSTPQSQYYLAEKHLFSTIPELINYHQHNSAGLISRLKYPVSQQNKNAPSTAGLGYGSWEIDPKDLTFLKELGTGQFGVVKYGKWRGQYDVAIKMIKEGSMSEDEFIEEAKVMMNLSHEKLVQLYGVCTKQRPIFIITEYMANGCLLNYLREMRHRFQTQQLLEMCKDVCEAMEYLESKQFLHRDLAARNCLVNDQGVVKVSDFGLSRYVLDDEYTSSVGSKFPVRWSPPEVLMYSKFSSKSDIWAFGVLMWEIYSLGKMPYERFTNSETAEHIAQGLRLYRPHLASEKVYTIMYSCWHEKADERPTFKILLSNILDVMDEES

Molecule `CC(C)N(C/C=C/C(=O)N1CC[C@@H](n2nc(-c3ccc(Oc4ccccc4)cc3)c3c(N)ncnc32)C1)C1CCC1` [Example 2aq, (R,E)-1-(3-(4-amino-3-(4-phenoxyphenyl)-1H-pyrazolo[3,4-d]pyrimidin-1-yl)pyrrolidin-1-yl)-4-(cyclobutyl(isopropyl)amino)but-2-en-1-one] registered an IC50 of less than 100 nM.
Under `CN(C/C=C/C(=O)N1CC[C@@H](n2nc(-c3ccc(Oc4ccccc4)cc3)c3c(N)ncnc32)C1)[C@@H]1CCOC1` [Example 2b, (E)-1-((R)-3-(4-amino-3-(4-phenoxyphenyl)-1H-pyrazolo[3,4-d]pyrimidin-1-yl)pyrrolidin-1-yl)-4-(methyl((R)-tetrahydrofuran-3-yl)amino)but-2-en-1-one] stands less than 100 nM.
Under `Nc1ncnc2c1c(-c1ccc(Oc3ccccc3)cc1)nn2[C@@H]1CCN(C(=O)/C=C/CN[C@@H]2CCOC2)C1` [Example 2c, (E)-1-((R)-3-(4-amino-3-(4-phenoxyphenyl)-1H-pyrazolo[3,4-d]pyrimidin-1-yl)pyrrolidin-1-yl)-4-((R)-tetrahydrofuran-3-ylamino)but-2-en-1-one] stands less than 100 nM; under `CN(C/C=C/C(=O)N1CC[C@@H](n2nc(-c3ccc(Oc4ccccc4)cc3)c3c(N)ncnc32)C1)[C@H]1CCOC1` [Example 2d, (E)-1-((R)-3-(4-amino-3-(4-phenoxyphenyl)-1H-pyrazolo[3,4-d]pyrimidin-1-yl)pyrrolidin-1-yl)-4-(methyl((S)-tetrahydrofuran-3-yl)amino)but-2-en-1-one], less than 100 nM.
Under `Nc1ncnc2c1c(-c1ccc(Oc3ccccc3)cc1)nn2[C@@H]1CCN(C(=O)/C=C/CN[C@H]2CCOC2)C1` [Example 2e, (E)-1-((R)-3-(4-amino-3-(4-phenoxyphenyl)-1H-pyrazolo[3,4-d]pyrimidin-1-yl)pyrrolidin-1-yl)-4-((S)-tetrahydrofuran-3-ylamino)but-2-en-1-one] stands less than 100 nM.
The molecule `CN(C/C=C/C(=O)N1CC[C@@H](n2nc(-c3ccc(Oc4ccccc4)cc3)c3c(N)ncnc32)C1)C1COC1` [Example 2f, (R,E)-1-(3-(4-amino-3-(4-phenoxyphenyl)-1H-pyrazolo[3,4-d]pyrimidin-1-yl)pyrrolidin-1-yl)-4-(methyl(oxetan-3-yl)amino)but-2-en-1-one] displayed an IC50 of less than 100 nM.
Take `Nc1ncnc2c1c(-c1ccc(Oc3ccccc3)cc1)nn2[C@@H]1CCN(C(=O)/C=C/CNC2COC2)C1` [Example 2g, (R,E)-1-(3-(4-amino-3-(4-phenoxyphenyl)-1H-pyrazolo[3,4-d]pyrimidin-1-yl)pyrrolidin-1-yl)-4-(oxetan-3-ylamino)but-2-en-1-one]: the IC50 is less than 100 nM.
Under `CN(C/C=C/C(=O)N1CCC[C@@H](n2nc(-c3ccc(Oc4ccccc4)cc3)c3c(N)ncnc32)C1)[C@@H]1CCOC1` [Example 2h, (E)-1-((R)-3-(4-amino-3-(4-phenoxyphenyl)-1H-pyrazolo[3,4-d]pyrimidin-1-yl)piperidin-1-yl)-4-(methyl((R)-tetrahydrofuran-3-yl)amino)but-2-en-1-one] stands less than 100 nM; under `Nc1ncnc2c1c(-c1ccc(Oc3ccccc3)cc1)nn2[C@@H]1CCCN(C(=O)/C=C/CN[C@@H]2CCOC2)C1` [Example 2i, (E)-1-((R)-3-(4-amino-3-(4-phenoxyphenyl)-1H-pyrazolo[3,4-d]pyrimidin-1-yl)piperidin-1-yl)-4-((R)-tetrahydrofuran-3-ylamino)but-2-en-1-one], less than 100 nM; under `CN(C/C=C/C(=O)N1CCC[C@@H](n2nc(-c3ccc(Oc4ccccc4)cc3)c3c(N)ncnc32)C1)[C@H]1CCOC1` [Example 2j, (E)-1-((R)-3-(4-amino-3-(4-phenoxyphenyl)-1H-pyrazolo[3,4-d]pyrimidin-1-yl)piperidin-1-yl)-4-(methyl((S)-tetrahydrofuran-3-yl)amino)but-2-en-1-one], less than 100 nM.
For the molecule `Nc1ncnc2c1c(-c1ccc(Oc3ccccc3)cc1)nn2[C@@H]1CCCN(C(=O)/C=C/CN[C@H]2CCOC2)C1` [Example 2k, (E)-1-((R)-3-(4-amino-3-(4-phenoxyphenyl)-1H-pyrazolo[3,4-d]pyrimidin-1-yl)piperidin-1-yl)-4-((S)-tetrahydrofuran-3-ylamino)but-2-en-1-one], the IC50 is less than 100 nM.
The result for `CN(C/C=C/C(=O)N1CCC[C@@H](n2nc(-c3ccc(Oc4ccccc4)cc3)c3c(N)ncnc32)C1)C1COC1` [Example 2m, (R,E)-1-(3-(4-amino-3-(4-phenoxyphenyl)-1H-pyrazolo[3,4-d]pyrimidin-1-yl)piperidin-1-yl)-4-(methyl(oxetan-3-yl)amino)but-2-en-1-one] reads less than 100 nM.
Under `Nc1ncnc2c1c(-c1ccc(Oc3ccccc3)cc1)nn2[C@@H]1CCCN(C(=O)/C=C/CNC2COC2)C1` [Example 2n, (R,E)-1-(3-(4-amino-3-(4-phenoxyphenyl)-1H-pyrazolo[3,4-d]pyrimidin-1-yl)piperidin-1-yl)-4-(oxetan-3-ylamino)but-2-en-1-one] stands less than 100 nM.
Molecule `COCCN(C/C=C/C(=O)N1CC[C@@H](n2nc(-c3ccc(Oc4ccccc4)cc3)c3c(N)ncnc32)C1)C1CC1` [Example 2p, (R,E)-1-(3-(4-amino-3-(4-phenoxyphenyl)-1H-pyrazolo[3,4-d]pyrimidin-1-yl)pyrrolidin-1-yl)-4-(cyclopropyl(2-methoxyethyl)amino)but-2-en-1-one] gave an IC50 of less than 100 nM.
Under `CC(C)N(C/C=C/C(=O)N1CC[C@@H](n2nc(-c3ccc(Oc4ccccc4)cc3)c3c(N)ncnc32)C1)C1CC1` [Example 2q, (R,E)-1-(3-(4-amino-3-(4-phenoxyphenyl)-1H-pyrazolo[3,4-d]pyrimidin-1-yl)pyrrolidin-1-yl)-4-(cyclopropyl(isopropyl)amino)but-2-en-1-one] stands less than 100 nM; under `Nc1ncnc2c1c(-c1ccc(Oc3ccccc3)cc1)nn2[C@@H]1CCCN(C(=O)/C=C/CN(C2CC2)C2CC2)C1` [Example 2r, (R,E)-1-(3-(4-amino-3-(4-phenoxyphenyl)-1H-pyrazolo[3,4-d]pyrimidin-1-yl)piperidin-1-yl)-4-(dicyclopropylamino)but-2-en-1-one], less than 100 nM.
`COCCN(C/C=C/C(=O)N1CCC[C@@H](n2nc(-c3ccc(Oc4ccccc4)cc3)c3c(N)ncnc32)C1)C1CC1` [Example 2s, (R,E)-1-(3-(4-amino-3-(4-phenoxyphenyl)-1H-pyrazolo[3,4-d]pyrimidin-1-yl)piperidin-1-yl)-4-(cyclopropyl(2-methoxyethyl)amino)but-2-en-1-one] showed an IC50 of less than 100 nM.
The result for `CC(C)N(C/C=C/C(=O)N1CCC[C@@H](n2nc(-c3ccc(Oc4ccccc4)cc3)c3c(N)ncnc32)C1)C1CC1` [Example 2t, (R,E)-1-(3-(4-amino-3-(4-phenoxyphenyl)-1H-pyrazolo[3,4-d]pyrimidin-1-yl)piperidin-1-yl)-4-(cyclopropyl(isopropyl)amino)but-2-en-1-one] reads less than 100 nM; that for `CN(C/C=C/C(=O)N1CC[C@@H](n2nc(-c3ccc(Oc4ccccc4)cc3)c3c(N)ncnc32)C1)C1CC1` [Example 2u, (R,E)-1-(3-(4-amino-3-(4-phenoxyphenyl)-1H-pyrazolo[3,4-d]pyrimidin-1-yl)pyrrolidin-1-yl)-4-(cyclopropyl(methyl)amino)but-2-en-1-one], less than 100 nM; that for `CCN(C/C=C/C(=O)N1CC[C@@H](n2nc(-c3ccc(Oc4ccccc4)cc3)c3c(N)ncnc32)C1)C1CC1` [Example 2v, (R,E)-1-(3-(4-amino-3-(4-phenoxyphenyl)-1H-pyrazolo[3,4-d]pyrimidin-1-yl)pyrrolidin-1-yl)-4-(cyclopropyl(ethyl)amino)but-2-en-1-one], less than 100 nM.
The result for `CN(C/C=C/C(=O)N1CC[C@@H](n2nc(-c3ccc(Oc4ccccc4)cc3)c3c(N)ncnc32)C1)C1CCCCC1` [Example 2w, (R,E)-1-(3-(4-amino-3-(4-phenoxyphenyl)-1H-pyrazolo[3,4-d]pyrimidin-1-yl)pyrrolidin-1-yl)-4-(cyclohexyl(methyl)amino)but-2-en-1-one] reads less than 100 nM; that for `Nc1ncnc2c1c(-c1ccc(Oc3ccccc3)cc1)nn2[C@@H]1CCN(C(=O)/C=C/CNC2CCCCC2)C1` [Example 2x, (R,E)-1-(3-(4-amino-3-(4-phenoxyphenyl)-1H-pyrazolo[3,4-d]pyrimidin-1-yl)pyrrolidin-1-yl)-4-(cyclohexylamino)but-2-en-1-one], less than 100 nM.
Under `CN(C/C=C/C(=O)N1CC[C@@H](n2nc(-c3ccc(Oc4ccccc4)cc3)c3c(N)ncnc32)C1)C1CCCC1` [Example 2y, (R,E)-1-(3-(4-amino-3-(4-phenoxyphenyl)-1H-pyrazolo[3,4-d]pyrimidin-1-yl)pyrrolidin-1-yl)-4-(cyclopentyl(methyl)amino)but-2-en-1-one] stands less than 100 nM; under `Nc1ncnc2c1c(-c1ccc(Oc3ccccc3)cc1)nn2[C@@H]1CCN(C(=O)/C=C/CNC2CCCC2)C1` [Example 2z, (R,E)-1-(3-(4-amino-3-(4-phenoxyphenyl)-1H-pyrazolo[3,4-d]pyrimidin-1-yl)pyrrolidin-1-yl)-4-(cyclopentylamino)but-2-en-1-one], less than 100 nM.
